{"source": "patent US4670418A", "about": "“Method of using somatostatin as an analgesic or an anesthetic” (CuraMED Pharma GmbH, priority 1984, dated 1987)", "key": {"[1]": {"system": "Cancer patients suffering from intolerable pain", "assay": "intraspinal and intraventricular injection and infusion in cancer patients with intolerable pain", "format": "in vivo", "settings": "humans, intraspinal or intraventricular route", "procedure": "Cancer patients suffering from intolerable pain in the final stage of post-operative pain were given 250 μg of somatostatin as an injection and thereafter 10 to 50 μg/hour of somatostatin as an infusion, in part via the intraspinal route and in part via the intraventricular route."}, "rats": {"system": "rats", "settings": "intracerebroventricular infusion; cited from earlier work"}, "[2]": {"settings": "in vivo; cited from earlier work"}, "dogs": {"system": "dogs", "assay": "investigation with dogs, analgesia test according to Cohen (heated plate)", "format": "in vivo"}, "[3]": {"assay": "intradural or intraspinal injections or infusions, anesthetic effect", "format": "in vivo"}, "humans": {"system": "humans", "assay": "preliminary experiments with humans, peridural application", "format": "in vivo"}, "[4]": {"assay": "penetration of the dura into the liquor upon peridural application", "format": "in vivo"}}, "data": [{"compound": "C[C@H](N)C(=O)NCC(=O)N[C@H]1CSSC[C@@H](C(=O)O)NC(=O)[C@H](CO)NC(=O)[C@H]([C@@H](C)O)NC(=O)[C@H](Cc2ccccc2)NC(=O)[C@H]([C@@H](C)O)NC(=O)[C@H](CCCCN)NC(=O)[C@H](Cc2c[nH]c3ccccc23)NC(=O)[C@H](Cc2ccccc2)NC(=O)[C@H](Cc2ccccc2)NC(=O)[C@H](CC(N)=O)NC(=O)[C@H](CCCCN)NC1=O", "note": "[somatostatin]", "values": [{"measurement": "analgesia", "setting": "[1]; 250 μg injection then 10 to 50 μg/hour infusion", "value": "marked analgesia, comparable to that of morphine"}, {"measurement": "tolerability of the infusions", "setting": "[1]; 10 to 50 μg/hour infusion", "value": "tolerated without any occurring side-effects for a period of over two weeks"}, {"measurement": "analgesic effect", "setting": "rats", "value": "a short-term analgesic effect was found"}, {"measurement": "half-life", "setting": "[2]", "value": "2 to 4", "unit": "min"}, {"measurement": "signs of pain", "setting": "dogs; dog having a large decubitus", "value": "showed no signs of pain"}, {"measurement": "duration of analgesic activity", "setting": "dogs; dogs", "value": "maintained for several weeks"}, {"measurement": "sedation and behavior", "setting": "dogs; dogs", "value": "had not been put under sedation and showed a balanced behavior"}, {"measurement": "side effects", "setting": "dogs; dogs", "value": "No side effects were apparent"}, {"measurement": "period for which heated plate was tolerated", "setting": "dogs; dogs, all animals, heated plate of 60° C., analgesia test according to Cohen", "value": 5, "unit": "s"}, {"measurement": "anesthetic effects", "setting": "[3]", "value": "have anesthetic effects"}, {"measurement": "analgesic effectiveness", "setting": "humans; peridural application of 125 μg", "value": "analgesically effective"}, {"measurement": "analgesic effectiveness", "setting": "humans; peridural application of 250 μg", "value": "analgesically effective"}, {"measurement": "penetration of the dura", "setting": "[4]", "value": "capable of rapidly (and to a high degree) penetrating the dura"}]}]}
